In the supplement of paper PMC10307832:

Experiments:
Assay in all cases: relative viability (nuclei count vs DMSO), 5 days (fraction); higher = more cells survive
[1] = compound: C1/C(=C\C2=CC=CS2)/C(=O)/C(=C/C3=CC=CS3)/C1 + CS(=O)(=O)CCNCc1ccc(-c2ccc3ncnc(Nc4ccc(OCc5cccc(F)c5)c(Cl)c4)c3c2)o1 [Lapatinib] (partner 2 µM)
Outline: (§1)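 Medians of duplicate plates are given as relative viability. That measure is the nuclei count in treated wells divided by the count in vehicle wells. Counts were taken on 4× images of lung cancer cell lines in 1536-well plates, 5 days after pin-tool dosing the day after seeding with one drug alone or a fixed anchor-drug dose plus five library-drug doses (not always all listed) in √10 steps.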

[2] = compound: C1/C(=C\C2=CC=CS2)/C(=O)/C(=C/C3=CC=CS3)/C1 + CS(=O)(=O)N1CCN(Cc2cc3nc(-c4cccc5[nH]ncc45)nc(N4CCOCC4)c3s2)CC1 [Pictilisib] (partner 1 µM)
Outline: as §1

[3] = compound: C[C@]12O[C@H](C[C@]1(O)CO)n1c3ccccc3c3c4c(c5c6ccccc6n2c5c31)CNC4=O [Lestaurtinib] + CS(=O)(=O)N1CCN(Cc2cc3nc(-c4cccc5[nH]ncc45)nc(N4CCOCC4)c3s2)CC1 [Pictilisib] (partner 1 µM)
Outline: as §1

[4] = compound: C[C@]12O[C@H](C[C@]1(O)CO)n1c3ccccc3c3c4c(c5c6ccccc6n2c5c31)CNC4=O [Lestaurtinib] + Nc1ncn([C@H]2C[C@H](O)[C@@H](CO)O2)c(=O)n1 [Decitabine] (partner 2 µM)
Outline: as §1

Cell Line	relative viability ([1]; first compound 0.2 µM)	relative viability ([1]; first compound 0.6325 µM)	relative viability ([1]; first compound 2 µM)	relative viability ([1]; first compound 6.325 µM)	relative viability ([1]; first compound 20 µM)	relative viability ([2]; first compound 0.2 µM)	relative viability ([2]; first compound 0.6325 µM)	relative viability ([2]; first compound 2 µM)	relative viability ([2]; first compound 6.325 µM)	relative viability ([2]; first compound 20 µM)	relative viability ([3]; first compound 0.005 µM)	relative viability ([3]; first compound 0.01581 µM)	relative viability ([3]; first compound 0.05 µM)	relative viability ([3]; first compound 0.1581 µM)	relative viability ([3]; first compound 0.5 µM)	relative viability ([4]; first compound 0.005 µM)	relative viability ([4]; first compound 0.01581 µM)	relative viability ([4]; first compound 0.05 µM)	relative viability ([4]; first compound 0.1581 µM)	relative viability ([4]; first compound 0.5 µM)
HCC-44	0.979	1.02	1	0.728	0.975	0.624	0.605	0.693	0.591	0.79	0.528	0.758	0.466	0.569	0.448	0.967	0.963	0.926	1.1	0.745
HCC-78	0.759	0.828	1.1	0.562	0.814	0.197	0.216	0.288	0.216	0.209	0.19	0.225	0.203	0.136	0.169	0.748	0.884	0.712	0.662	0.441
HCC-366	1.14	0.926	1.07	0.84	0.931	0.132	0.137	0.204	0.191	0.0995	0.159	0.178	0.192	0.101	0.0482	0.408	0.343	0.378	0.365	0.222
HCC-827	0.21	0.177	0.205	0.191	0.204	1.12	1	1.1	0.933	1.01	1.13	0.8	0.896	0.833	0.388	0.298	0.38	0.331	0.367	0.282
HOP-62	0.902	0.589	0.9	0.932	0.983	0.781	0.657	0.824	0.704	0.889	0.742	0.693	0.642	0.604	0.427	0.171	0.231	0.273	0.323	0.211
IA-LM	1.08	0.749	0.779	0.757	0.67	0.396	0.399	0.31	0.369	0.359	0.547	0.691	0.725	0.642	0.198					
LC-2-ad	0.891	1.03	0.939	0.747	0.973	0.464	0.525	0.482	0.51	0.425	0.369	0.333	0.204	0.167	0.113	0.912	0.829	0.755	0.654	0.476
LCLC-97TM1	1.14	0.806	1.15	0.955	1.18	0.209	0.28	0.198	0.235	0.159	0.197	0.163	0.138	0.139	0.125		0.242	0.207	0.245	0.257
